Experimental data from US5478825A, “5-(substituted amino)-1,2,4-triazolo (1,5-A) pyrimidine derivatives” (Egis Gyogyszergyar, priority 1991, dated 1995).
Like-named read-outs stand apart in the source and are kept apart here.

Experiments:
carrageen oedema = experiment: Antiinflammatory (Carrageen oedema inhibiting) effect; assay type: in vivo
Method: 4. Antiinflammatory (Carrageen oedema inhibiting) effect
The experiments were carried out by the method of Winter et al. [Winter, C. A. et al.: Proc. Soc. […] 0.1 ml of a 1 per cent carrageen suspension was injected subcutaneously into the plantar region of one of the hind paws. Rats were fasted for 12 hours and received drinking water ad libitum. One hour before treatment with the test compound the animals were hydrated orally with 30 ml/kg of tap water. The test compounds or the vehicle were administered p.o. in a volume of 10 ml/kg, then one hour later carrageen was applied. The volume of the treated paw was measured by a plethysmometer before and 3 hours after injection in such a way that displacement of the liquid arising from the volume alteration was indicated on a millimeter scale. The volume of the treated paws were compared with those of the control group.

right atrium = experiment: Positive inotropic effect in guinea pig (isolated right atrium); settings: for Frequency: percentage change of atrial frequency; for Concentration force dP/dt: percentage change, 2 Hz, 37° C., concentration not given
Method: 2. Positive inotropic effect in guinea pig
The experiments were carried out by the method of Alousi [Alousi, A. A. et al.: J. Cardiovasc. […] Animals weighing 400-600 g were stunned with a blow to the head and exsanguinated. The heart was excised and the right atrium was removed and placed into a modified Tyrode solution of 37° C. It was then preloaded with 2.1 g and stimulated electrically at a rate of 2 Hz by rectangular pulses 0.5 ms in duration. The first derivative by time of the contraction force of the isolated organ (dP/dt) and the atrial frequency were recorded by a polygraph. From the data thus obtained percentage changes were calculated.

[1] = tested on: anaesthetized cat, left ventricular pressure (dP/dtmax); experiment: Positive inotropic effect in anaesthetized cat; assay type: in vivo; settings: Felis catus, iv; for change in vivo at 1 mg/kg: 1 mg/kg i.v.; for change in vivo at 5 mg/kg: 5 mg/kg i.v.; for change in vivo at 10 mg/kg: 10 mg/kg i.v.
Method: 1. Positive inotropic effect in anaesthetized cat
The experiments were carried out on male and female cats anaesthetized with chloralose-urethane (40/300 mg/kg i.p. in a volume of 1 ml/kg). A polyethylene catheter was inserted into the left ventricle via the right subclavian artery. The inotropic activity was measured with the aid of the first derivative by time of the left ventricular pressure curve (dP/dtmax). The blood pressure was measured by means of another catheter introduced from the left femoral artery into the upper third part of the abdominal artery. A Statham P23Db transducer and HSE (Hugo Sachs Electronics) amplifiers were used for both pressure measurements. […] The test compounds were administered via a femoral venous cannula.

[2] = tested on: rats (vasopressin induced coronaria insufficiency); experiment: Antianginal effect in rats (vasopressin induced coronaria insufficiency); assay type: in vivo; settings: Rattus norvegicus, iv; i.v. 2 minutes prior to vasopressin; T wave in ECG
Method: 3.a) Antianginal effect in rats
Rats weighing 180-220 g were narcotized with chloralose-urethane (70/700 mg/kg i.p.). The ECG was registered with needle electrodes in standard II leading. The experimental coronaria insufficiency was induced with vasopressin (1 NE/kg i.v.). The height of T wave in ECG was measured before and after the administration of vasopressin in both the control and treated groups. Test compounds were administered intravenously 2 minutes prior to the treatment with vasopressin.

motility of mice = experiment: Motility inhibiting activity; assay type: in vivo; settings: 100 mg/kg, orally
Method: 5. Motility inhibiting activity
The tests were performed according to the method of Borsy et al. [Arch. Int. Pharmacodyn. 124, 1-2 (1960)]. Groups consisting of 3 mice each were treated orally with different doses of the compounds to be tested. Then the test animals were placed in a Dews equipment. In this equipment the number of interruptions of infrared beam within 30 minutes was counted. The inhibition is expressed as the percentage of the value obtained for the control animals.

coronary artery = experiment: Coronary flow test in dog; assay type: in vivo
Method: 3.b) Coronary flow test in dog
The experiments were carried out in young mongrel do, of both sexes weighing 10-26 kg. The test compounds were administered in 1-5-10 mg/kg doses intravenously. […] Mean arterial blood pressure was recorded on the carotis with a Statham gauge (type: p23Db). The changes of the myocardial contractile forces were followed isometrically with a microdynamometer (type: Experimetria, SG-01) affixed to the anterior wall of the left ventricle. Data were collected on the first derivate of the myocardial contractile force to follow the changes of the contraction and relaxation speed. […] The changes of the heart rate were also followed. The conductivity of the coronary artery (the ratio of the mean coronary flow and the mean blood pressure) was calculated. The mean values were evaluated statistically using Student's test as well as regression analysis and multiple t test.

[3] = Rattus norvegicus, po, 3 h; read-out: ID30

`CC(=O)Oc1ccccc1C(=O)O` [Acetylsalicylic acid, reference compound] gave an ED30 (carrageen oedema; Rattus norvegicus, po, 3 h, read-out: ID30) of 62.4 mg/kg.
For `Nc1cc(-c2ccncc2)c[nH]c1=O` [Amrinone, reference compound], the Frequency (right atrium) was 28%, the “Concentration force dP/dt” value (right atrium) was 33% and the change in vivo at 1 mg/kg [1] was 19%. The change in vivo at 5 mg/kg [1] was 53.9% and the change in vivo at 10 mg/kg [1] was 48.3%.
`C=CCN(CC=C)c1c2c(nc3nc(SC)nn13)CCC2` [Example 4, 5-(Diallylamino)-2-(methylthio)-6,7-dihydro-8H-cyclopenta[d]-1,2,4-triazolo[1,5-a]pyrimidine] showed an ED50 [2] of 1.97 mg/kg.
Work on `CSc1nc2nc3c(c(NCc4ccccc4)n2n1)CCC3` [Example 6, 5-(Benzylamino)-2-(methylthio)-6,7-dihydro-8H-cyclopenta[d]-1,2,4-triazolo[1,5-a]pyrimidine] yielded an ED50 [2] of 1.49 mg/kg.
`CSc1nc2nc3c(c(NCc4ccc(Cl)cc4)n2n1)CCC3` [Example 7, 5-(4-Chlorobenzylamino)-2-(methylthio)-6,7-dihydro-8H-cyclopenta[d]-1,2,4-triazolo[1,5-a]pyrimidine] gave an ED30 (carrageen oedema; [3]) of 200 mg/kg.
With `CSc1nc2nc3c(c(N4CCOCC4)n2n1)CCC3` [Example 8, 2-(Methylthio)-5-morpholino-6,7-dihydro-8H-cyclopenta[d]-1,2,4-triazolo[1,5-a]pyrimidine] the Frequency (right atrium) was -5%, the “Concentration force dP/dt” value (right atrium) was 86% and the change in vivo at 1 mg/kg [1] was 42.8%. The change in vivo at 5 mg/kg [1] was 76% and the change in vivo at 10 mg/kg [1] was 86.3%.
With `CSc1nc2nc3c(c(N4CCN(CCO)CC4)n2n1)CCC3` [Example 9, 5-[4-(2-Hydroxyethyl)piperazino]-2-(methylthio)-6,7-dihydro-8H-cyclopenta[d]-1,2,4-triazolo[1,5-a]pyrimidine] the ED50 [2] was about 2 mg/kg.
In the case of `CSc1nc2nc3c(c(NCCN4CCOCC4)n2n1)CCC3` [Example 10, 2-(Methylthio)-5-[N-(2-morpholinoethyl)]amino-6,7-dihydro-8H-cyclopenta[d]-1,2,4-triazolo[1,5-a]pyrimidine], the ED50 [2] is reported as 1.47 mg/kg and the ED30 (carrageen oedema; [3]) is reported as 120 mg/kg.
In the case of `C1CCN(c2c3c(nc4nc(N5CCOCC5)nn24)CCC3)CC1` [Example 16, 2-Morpholino-5-piperidino-6,7-dihydro-8H-cyclopenta[d]-1,2,4-triazolo[1,5-a]pyrimidine], the ED50 [2] is reported as 1.52 mg/kg and the “Change in motility vs control” value (motility of mice) is reported as -53%.
With `CSc1nc2nc3c(c(NCCCN4CCOCC4)n2n1)CCCC3` [Example 19, 2-(Methylthio)-5-[N-(3-morpholinopropyl)]amino-6,7,8,9-tetrahydro-1,2,4-triazolo[5,1-b]quinazoline] the Frequency (right atrium) was -2%, the “Concentration force dP/dt” value (right atrium) was 171% and the change in vivo at 1 mg/kg [1] was 35%. It also gave a change in vivo at 5 mg/kg [1] of 72.8% and a change in vivo at 10 mg/kg [1] of 90.6%.
`CN(C)CCCNc1c2c(nc3nc(N4CCOCC4)nn13)CCCC2` [Example 22, 5-[N-(3-Dimethylaminopropyl)]amino-2-morpholino-6,7,8,9-tetrahydro-1,2,4-triazolo[5,1-b]quinazoline] was tested, and the ED50 [2] was about 2 mg/kg.
In the case of `CCN(CC)c1c2c(nc3nc(N(C)C)nn13)CCCS2` [Example 26, 5-(Diethylamino)-2-(dimethylamino)-7,8-dihydro-9H-thiopyrano[3,2-d]-1,2,4-triazolo[1,5-a]pyrimidine], the ED30 (carrageen oedema; [3]) is reported as 170 mg/kg.
For `CC(C)Sc1nc2nc3c(c(NCCCN4CCOCC4)n2n1)CCCC3` [Example 30, 2-(1-Methylethylthio)-5-[N-(3-morpholinopropyl)]amino-6,7,8,9-tetrahydro-1,2,4-triazolo[5,1-b]quinazoline], the “Conductivity of the coronary artery” value (coronary artery; 1 mg/kg i.v.) was 166%, the “Conductivity of the coronary artery” value (coronary artery; 5 mg/kg i.v.) was 397% and the “Conductivity of the coronary artery” value (coronary artery; 10 mg/kg i.v.) was 481%. The change in vivo at 1 mg/kg [1] was 22.3%, the change in vivo at 5 mg/kg [1] was 53.8% and the change in vivo at 10 mg/kg [1] was 86.8%.
Work on `CCSc1nc2nc3c(c(NCCN4CCOCC4)n2n1)CCCC3` [Example 31, 2-(Ethylthio)-5-[N-(2-morpholinoethyl)]amino-6,7,8,9-tetrahydro-1,2,4-triazolo[5,1-b]quinazoline] yielded a change in vivo at 1 mg/kg [1] of 46.5%, a change in vivo at 5 mg/kg [1] of 131% and a change in vivo at 10 mg/kg [1] of 129%.
In the case of `CSc1nc2nc3c(c(NCCN4CCOCC4)n2n1)CCCCCCCCCC3` [Example 35, 2-(Methylthio)-5-[N-(2-morpholinoethyl)]amino-6,7,8,9,10,11,12,13,14,15-decahydro-cyclododeca[d]-1,2,4-triazolo[1,5-a]pyrimidine], the “Conductivity of the coronary artery” value (coronary artery; 1 mg/kg i.v.) is reported as 256%, the “Conductivity of the coronary artery” value (coronary artery; 5 mg/kg i.v.) is reported as 940% and the “Conductivity of the coronary artery” value (coronary artery; 10 mg/kg i.v.) is reported as 1030%. For the same compound, the Frequency (right atrium) was 8% and the “Concentration force dP/dt” value (right atrium) was 79%.
For `CSc1nc2nc3c(c(NCCN4CCOCC4)n2n1)CCCCC3` [Example 37, 2-(Methylthio)-5-[N-(2-morpholinoethyl)]amino-6,7,8,9-tetrahydro-10H-cyclohepta[d]-1,2,4-triazolo[1,5-a]pyrimidine], the “Conductivity of the coronary artery” value (coronary artery; 1 mg/kg i.v.) was 188%, the “Conductivity of the coronary artery” value (coronary artery; 5 mg/kg i.v.) was 371% and the “Conductivity of the coronary artery” value (coronary artery; 10 mg/kg i.v.) was 780%.
With `CSc1nc2nc3c(c(NCCN4CCOCC4)n2n1)SCCC3` [Example 39, 2-(Methylthio)-5-[N-(2-morpholinoethyl)]amino-7,8-dihydro-9H-thiopyrano[3,2-d]-1,2,4-triazolo[1,5-a]pyrimidine] the Frequency (right atrium) was -12% and the “Concentration force dP/dt” value (right atrium) was 51%.
For `CSc1nc2nc3c(c(NCCN4CCOCC4)n2n1)CCN(Cc1ccccc1)C3` [Example 46, 8-Benzyl-2-(methylthio)-5-[N-(2-morpholinoethyl)]amino-6,7,8,9-tetrahydropyrido[3,4-d]-1,2,4-triazolo[1,5-a]pyrimidine], the Frequency (right atrium) was -15% and the “Concentration force dP/dt” value (right atrium) was 80%.
With `COc1ccc(CNc2c3c(nc4nc(SC)nn24)CCC3)cc1` [Example 50, 2-(Methylthio)-5-(4-methoxybenzylamino)-6,7-dihydro-8H-cyclopenta[d]-1,2,4-triazolo[1,5-a]pyrimidine] the ED30 (carrageen oedema; [3]) was 190 mg/kg.
`CN(C)c1nc2nc3c(c(NCCCN4CCOCC4)n2n1)SCCC3` [Example 53, 2-(Dimethylamino)-5-[N-(3-morpholinopropyl)]amino7,8-dihydro-9H-thiopyrano[3,2-d]-1,2,4-triazolo[1,5-a]pyrimidine] gave a change in vivo at 0.5 mg/kg ([1]; 0.5 mg/kg i.v.) of 35.5%, a change in vivo at 1 mg/kg [1] of 48% and a change in vivo at 5 mg/kg [1] of 95%. For the same compound, the change in vivo at 10 mg/kg [1] was 93.6%.
In the case of `CSc1nc2nc3c(c(N4CCN(Cc5ccccc5)CC4)n2n1)CCC3` [Example 54, 5-(4-Benzylpiperazino)-2-(methylthio)-6,7-dihydro-8H-cyclopenta[d]-1,2,4-triazolo[1,5-a]pyrimidine], the ED30 (carrageen oedema; [3]) is reported as 85 mg/kg.
In the case of `CCOC(=O)CNc1c2c(nc3nc(SC)nn13)CCC2` [Example 60, Ethyl N-[2-methylthio-6,7-dihydro-8H-cyclopenta[d]-1,2,4-triazolo[1,5-a]pyrimidin-5-yl]glycinate], the ED50 [2] is reported as about 2 mg/kg.
`CC(=O)Nc1ccc(O)cc1` [Paracetamol, reference compound] was tested, and the ED30 (carrageen oedema; [3]) was 195 mg/kg.
